Test results reported in patent US10711011B2, “Substituted oxazolidines as anti-bacterial agents” (BUGWORKS RESEARCH, INC., priority 2016, dated 2020).
In brackets after ≈: the same amount, converted by molar mass. Read-outs that look alike come from different tables or passages of the source.

How the values were obtained:
[1] = test system: S. aureus ATCC 29213; assay: Minimum Inhibitory Concentration (MIC) in LB media; format: cell-based, Staphylococcus aureus; conditions: Staphylococcus aureus, ATCC29213, LB Media
Description: (§1) The compounds of Formula I are of interest due to their potent antibacterial effects. The ability of the invention compounds disclosed herein to achieve an antibacterial effect may be evaluated with regard to their ability to inhibit the growth of bacterial species like Escherichia coli ATCC 25922, Staphylococcus aureus ATCC 29213, Klebsiella pneumoniae ATCC 13883, Acinetobacter baumannii ATCC 19606, Pseudomonas aurigenosa ATCC 27853, Enterococcus faecalis ATCC 29212 and Enterococcus faecalis ATCC 29212 using an assay based on the following Minimum Inhibitory Concentration (MIC) protocol:
(§2) The test bacteria are grown in Luria Bertani Broth (HIMEDIA M1245), 25 grams of the powder is dissolved in 1000 ml distilled water and sterilized by autoclaving at 15 lbs pressure (121° C.) for 20 minutes. The medium sterility is checked by incubating at 37° C. for a period of 48 h.
(§3) Bacterial cultures that are stored as glycerol stocks at −80° C. are sub cultured on LB agar plates to obtain isolated colonies. A single colony of each strain is cultured in LB broth. The cultures are incubated at 37° C., 200 rpm till they reach an optical density (OD at 600 nm) of 0.8 to 1. […] Test compounds are dissolved in dimethyl sulfoxide (DMSO) to a stock concentration of 4 mg/ml. A twofold dilution series of this DMSO stock is prepared in a 96 well V bottom microtitre plate from rows A to H. A 3 μL volume of these dilutions are transferred to a 96-well flat bottom microtitre assay plate. Controls to monitor the effects of DMSO and media sterility are included. Each well is inoculated with 150 μL of the above diluted culture. The plates are incubated at 37° C. overnight in a humidified incubator. The following morning, the plates are read using a Spectrophotometer at 600 nm wavelength. […] The antibacterial activity (MIC) determined against representative Gram positive (S. aureus, E. faecalis) and Gram negative (E. coli, P. aurigenosa, K. pneumoniae and A. baumannii) pathogen were reported Table 1.

[2] = test system: P. aurigenosa ATCC 27853; assay: Minimum Inhibitory Concentration (MIC) in LB media; format: cell-based, Pseudomonas aurigenosa; conditions: Pseudomonas, ATCC27853, LB Media
Description: as §1, §2, §3

[3] = test system: K. pneumoniae ATCC 13883; assay: Minimum Inhibitory Concentration (MIC) in LB media; format: cell-based, Klebsiella pneumoniae; conditions: Klebsiella pneumoniae, ATCC13883, LB Media
Description: as §1, §2, §3

[4] = test system: A. baumannii ATCC 19606; assay: Minimum Inhibitory Concentration (MIC) in LB media; format: cell-based, Acinetobacter baumannii; conditions: Acinetobacter baumannii, ATCC19606, LB Media
Description: as §1, §2, §3

[5] = target: E. coli DNA gyrase (Escherichia coli, UniProt P0AES4+P0AES6); assay: biochemical; conditions: supercoiling assay
Sequence of E. coli DNA gyrase (P0AES4 whole entry, one chain of several): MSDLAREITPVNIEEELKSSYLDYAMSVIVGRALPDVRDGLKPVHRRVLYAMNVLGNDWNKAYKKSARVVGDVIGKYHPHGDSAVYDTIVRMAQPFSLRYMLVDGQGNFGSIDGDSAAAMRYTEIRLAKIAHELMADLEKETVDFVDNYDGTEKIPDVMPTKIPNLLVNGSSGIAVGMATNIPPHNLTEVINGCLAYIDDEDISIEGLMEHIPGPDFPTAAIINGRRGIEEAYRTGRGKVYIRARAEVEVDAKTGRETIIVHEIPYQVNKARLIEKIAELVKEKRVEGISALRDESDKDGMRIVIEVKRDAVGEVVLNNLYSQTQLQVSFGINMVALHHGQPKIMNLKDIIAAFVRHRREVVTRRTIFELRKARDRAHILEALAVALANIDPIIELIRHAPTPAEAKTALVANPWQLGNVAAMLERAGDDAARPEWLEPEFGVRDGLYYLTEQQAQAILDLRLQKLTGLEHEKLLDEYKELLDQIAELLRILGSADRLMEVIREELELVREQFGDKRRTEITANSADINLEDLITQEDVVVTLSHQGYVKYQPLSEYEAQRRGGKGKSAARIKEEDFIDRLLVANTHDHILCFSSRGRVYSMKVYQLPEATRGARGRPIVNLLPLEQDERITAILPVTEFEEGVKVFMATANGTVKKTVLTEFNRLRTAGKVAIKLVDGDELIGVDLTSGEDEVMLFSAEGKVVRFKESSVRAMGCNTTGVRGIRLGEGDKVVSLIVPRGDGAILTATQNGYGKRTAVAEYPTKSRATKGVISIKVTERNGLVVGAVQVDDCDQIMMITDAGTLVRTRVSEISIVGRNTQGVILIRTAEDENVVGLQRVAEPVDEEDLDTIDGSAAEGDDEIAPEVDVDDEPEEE

[6] = Mouse intravenous pharmacokinetics; format: in vivo, BALB/c mice; conditions: 2 mg/kg
Method: To assess the Oral and Intravenous pharmacokinetic profile of Example 13, pharmacokinetics (PK) of Example 13 was characterized in BALB/c mice following single intravenous (i.v.) dose of 2 mg/kg and single escalating oral doses of 2, 10, 50 and 100 mg/kg, respectively. This study was performed following all ethical practices as laid down in the guidelines for animal care (Registration number No. 1852/PO/Rc/S/16/CPCSEA). The study was approved by the Institutional Animals Ethics Committee (IAEC) of the test facility. For IVPK in BALB/c mice, the formulation used was DMSO: PEG400: Ethanol: Water (10:20:10:60 v/v) and Example 13 administered as solution. For POPK, the formulation used was 0.1% Tween80 in 0.25% CMC and Example 13 administered as suspension through an oral gavage. The plasma (mice) samples were analyzed by LC-MS/MS. PK parameters were estimated by non-compartmental analysis in Phoenix WinNonlin 6.4 The results of the per-oral and intravenous PK study of Example 13 are presented in Table 4 and 5

[7] = test system: E. coli [ATCC 25922]; assay: In vivo efficacy in the mouse E. coli thigh infection model; conditions: neutropenic BALB/c mice, oral
Method: To assess the Oral efficacy, Example 13 was tested in BALB/c mice thigh infection model following per oral doses of 100 mg/kg once, 50 mg/kg once and twice, 33 mg/kg thrice and 25 mg/kg four times over a 24 hour period post infection. This study was performed following all ethical practices as laid down in the guidelines for animal care (Registration number No. 1852/PO/Rc/S/16/CPCSEA). The study was approved by the Institutional Animals Ethics Committee (IAEC) of the test facility. The formulation used was 0.1% Tween80 in 0.25% CMC and Example 13 administered as suspension through an oral gavage. Neutropenic mice were infected with [˜1×10^6 CFU/mouse] E. coli [ATCC 25922] by intramuscular route. Two hours post infection, mice were treated orally with total doses of 100, 50, 50, 33 and 25 mg/kg of Example 13 as one, two, three and four equally divided doses over a 24 h period. Animals were sacrificed 24 hr post infection and thigh tissues were harvested to enumerate the bacterial CFU count. Thigh muscles were placed in 1 ml of sterile LB broth and homogenized using a homogenizer (Omni Tip (220 volt hand held)). Serial ten-fold dilutions of the thigh homogenates were prepared in sterile LB broth, 0.05 ml of four dilutions for each thigh was plated onto Lactose agar plates. […]

[8] = BALB/c, mouse, plasma, iv, mice

SMILES: CN1C(=O)Cc2ccc(F)c(CCNCCC3CN(c4ccc5c(n4)NC(=O)CO5)C(=O)O3)c21 (single isomer, unassigned) [Example 13, 6-(5-(2-((2-(6-fluoro-1-methyl-2-oxoindolin-7-yl)ethyl)amino)ethyl)-2-oxooxazolidin-3-yl)-2H-pyrido[3,2-b][1,4]oxazin-3(4H)-one]
- MIC [1]: 0.03 µg/mL (≈ 0.0639 µM)
- MIC [2]: 0.5 µg/mL (≈ 1.07 µM)
- MIC [3]: 0.125 µg/mL (≈ 0.266 µM)
- MIC [4]: 0.06 µg/mL (≈ 0.128 µM)
- IC50 [5]: 50 nM
- clearance ([6]; BALB/c, mouse, plasma, iv, BALB/c mice, single i.v. dose of 2.0 mg/kg, read-out: systemic clearance (converted)): 95 mL/min/kg
- Vd ([6]; BALB/c, mouse, plasma, iv, BALB/c mice, single i.v. dose of 2.0 mg/kg, read-out: volume of distribution at steady state): 13.3 L/kg
- half-life [6, 8]: 1.7 h
- clearance ([6]; BALB/c, mouse, plasma, iv, mice, i.v., read-out: CL (converted)): 94.8 mL/min/kg
- Vd ([6]; BALB/c, mouse, plasma, iv, mice, i.v., read-out: Vss): 13.3 L/kg
- AUC(0-inf) [6, 8]: 352 ng·h/mL
- AUC(0-t) [6, 8]: 352 ng·h/mL
- AUC (% Extrap) ([6]; mice, i.v.): 0.002%
- Ke ([6]; mice, i.v.): 0.403 h⁻¹
- t1/2 ([6]; mice, i.v.): 1.718 h
- efficacy (bacterial density Log 10 CFU/thigh vs vehicle) ([7]; 100 mg/kg as single, two, three and four equally divided doses over 24 h): significant efficacy
- efficacy (bacterial density Log 10 CFU/thigh vs vehicle) ([7]; single dose of 50 mg/kg): ineffective
